The text below walks through data of ChEMBL document CHEMBL1147075, “Immunotherapeutic activity of a conjugate of a Toll-like receptor 7 ligand” (Proc Natl Acad Sci U S A, 2007).

Experiment [1] deals with Bacillus anthracis. The experiment can be described thus: Protection against Bacillus anthracis infection in A/J mouse. It counts as functional, organism-based.
Experiment [2] deals with BMDM. The experiment in a line: Induction of cytokine release in mouse BMDM cells at 0.01 to 10 uM after 24 hrs by ELISA. In kind it is functional, cell-based.

Activity calls are given as the source filed them. The calls are words filed in the database; no cut-off is given here.

Regarding `COCCOc1nc(N)c2nc(O)n(Cc3ccc(C=O)cc3)c2n1`, in experiment [1], the outcome was inactive. In experiment [2], the result was Active.
